According to ChEMBL document CHEMBL1201862, “PubChem BioAssay data set” (2004):
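Each compound was tested at five concentrations against cells in 96-well plates for 48 hours. Abbreviation: GI50, concentration required for 50% inhibition of growth.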 Activity calls are given as the source filed them. No stated cut-off is given here; in the data, active = GI50 up to about 1.1 µM and inactive = higher.

Columns and labels:
Experiment in all cases: NCI anticancer screen, dose series, 48 h
[1] = test system: 786-0
[2] = test system: BT-549
[3] = test system: CAKI-1
[4] = test system: KM12
[5] = test system: M14
[6] = test system: MDA-MB-231
[7] = test system: MDA-MB-435
[8] = test system: NCI-H460
[9] = test system: NCI-H522
[10] = test system: OVCAR-4
[11] = test system: OVCAR-8
[12] = test system: PC-3
[13] = test system: RPMI-8226
[14] = test system: SF-295
[15] = test system: T47D
[16] = test system: UACC-257
[17] = test system: HOP-92
[18] = test system: K562
[19] = test system: SNB-75

Measured: GI50

Cc1ccc(N(C)S(=O)(=O)c2ccccc2[N+](=O)[O-])cc1
inactive: [1] > 100 µM | [2] 23.3 µM | [3] 48.2 µM | [4] 29.4 µM | [5] 21.6 µM | [6] 41 µM | [7] 29.2 µM | [8] 32.5 µM | [9] 24.6 µM | [10] 41.7 µM | [11] 48.6 µM | [12] 19 µM | [13] 33.9 µM | [14] 52.1 µM | [15] 77.4 µM | [16] 41.7 µM

n1onc2c1NC1Nc3nonc3NC1N2 (stereo unspecified)
inactive: [1] > 100 µM | [3] > 100 µM | [17] > 100 µM | [18] > 100 µM | [4] > 100 µM | [5] > 100 µM | [7] > 100 µM | [8] > 100 µM | [9] > 100 µM | [10] > 100 µM | [11] > 100 µM | [12] > 100 µM | [13] > 100 µM | [14] > 100 µM | [19] > 100 µM | [15] > 100 µM

COc1ccc(/C=N/c2ccc(-c3nc4ccccc4s3)cc2)cc1OC
inactive: [1] 19 µM | [2] 30.5 µM | [3] 31.3 µM | [17] 22.4 µM | [18] 27.4 µM | [4] 26.4 µM | [5] 35.7 µM | [7] 33.3 µM | [8] 21.8 µM | [9] 16.7 µM | [10] 34.3 µM | [11] 36.2 µM | [12] 22.6 µM | [13] 21.7 µM | [14] 25.4 µM | [19] 25.7 µM | [15] 17.4 µM | [16] 22.7 µM

CC[C@@]1(C[C@H]2C[C@@]3(C(=O)OC)c4[nH]c5ccccc5c4CCN3C2=O)COC2(CCCCC2)O1
inactive: [1] 39.9 µM | [2] 47.9 µM | [3] 36.2 µM | [18] 23.6 µM | [4] 19.9 µM | [5] 37.8 µM | [6] > 100 µM | [8] 24.3 µM | [9] 37.1 µM | [10] 58.2 µM | [11] 43.3 µM | [12] 15 µM | [14] 33.4 µM | [19] 46.8 µM | [15] 29.3 µM | [16] 20 µM

COc1ccc2c(O)c(Oc3ccc(Cl)cc3)c(=O)oc2c1
inactive: [1] > 100 µM | [2] 36.9 µM | [3] 54.3 µM | [17] 34.5 µM | [18] > 100 µM | [4] > 100 µM | [5] 88.9 µM | [6] > 100 µM | [8] > 100 µM | [9] > 100 µM | [10] > 100 µM | [11] > 100 µM | [12] > 100 µM | [13] > 100 µM | [14] > 100 µM | [19] 99.5 µM | [15] 55.6 µM | [16] > 100 µM

C=C1CCCCCCCCCCC12SCCC2CCCCSC (stereo unspecified)
inactive: [1] 29.2 µM | [17] 28.1 µM | [18] 22.9 µM | [5] 19.9 µM | [6] 19.9 µM | [7] 26.1 µM | [8] 34.5 µM | [9] 17.2 µM | [10] 39.8 µM | [11] 28.8 µM | [12] 22.6 µM | [13] 24.4 µM | [14] 19.9 µM | [15] 17.9 µM | [16] 26.1 µM

CC(C)(C)OC(=O)N/N=C(/N)c1ccccc1
inactive: [1] > 100 µM | [2] > 100 µM | [3] > 100 µM | [18] > 100 µM | [4] > 100 µM | [5] > 100 µM | [6] > 100 µM | [7] > 100 µM | [8] > 100 µM | [9] > 100 µM | [10] > 100 µM | [11] > 100 µM | [12] > 100 µM | [13] > 100 µM | [14] > 100 µM | [19] > 100 µM | [15] > 100 µM | [16] > 100 µM

COc1ccc(C(Cc2ccccc2)C2NC(=S)NC2=O)cc1 (stereo unspecified)
inactive: [1] > 25 µM | [3] > 25 µM | [17] > 25 µM | [18] > 25 µM | [4] > 25 µM | [5] > 25 µM | [6] > 25 µM | [7] > 25 µM | [8] > 25 µM | [9] > 25 µM | [10] > 25 µM | [11] > 25 µM | [12] > 25 µM | [13] > 25 µM | [14] > 25 µM | [19] > 25 µM | [15] > 25 µM | [16] > 25 µM

O=C(O)C(=Cc1ccnc2ccccc12)C(=O)O
inactive: [1] > 100 µM | [2] > 100 µM | [3] > 100 µM | [17] > 100 µM | [18] > 100 µM | [4] > 100 µM | [5] > 100 µM | [6] > 100 µM | [8] > 100 µM | [9] > 100 µM | [11] > 100 µM | [12] > 100 µM | [13] > 100 µM | [14] > 100 µM | [19] > 100 µM | [15] > 100 µM | [16] > 100 µM

O=C(/N=N/c1cccc(Cl)c1)NNc1cccc(Cl)c1
inactive: [1] 15.1 µM | [2] > 10 µM | [3] 18.1 µM | [18] 10.6 µM | [5] 14.4 µM | [6] 23.2 µM | [7] 11.5 µM | [8] 15.5 µM | [9] 21.9 µM | [10] 10.3 µM | [11] 17.3 µM | [12] 8.97 µM | [13] 8.36 µM | [19] 28.5 µM | [15] 10.8 µM | [16] 19.1 µM

NCC(=O)NC1(c2cc3ccccc3s2)CCCCC1
inactive: [1] 41.4 µM | [2] 54.1 µM | [3] > 100 µM | [17] 22.2 µM | [18] 5.68 µM | [4] 40.6 µM | [5] 17.6 µM | [7] 37.8 µM | [8] 33.5 µM | [9] 41.4 µM | [10] 50.8 µM | [11] > 100 µM | [13] 21.8 µM | [14] 59.7 µM | [19] 28.3 µM | [15] 40 µM | [16] 17.4 µM

CNc1ccc(C)cc1S(=O)(=O)c1ccccc1[N+](=O)[O-]
inactive: [1] 64.6 µM | [2] 46.6 µM | [18] 26.7 µM | [4] 59.4 µM | [5] 40.6 µM | [6] > 100 µM | [7] 25.5 µM | [8] 51.1 µM | [9] 31.8 µM | [10] 25.2 µM | [11] 78 µM | [12] 28.1 µM | [13] 49.4 µM | [14] 42.1 µM | [19] 43.3 µM | [15] 29 µM
